# Measurements published in patent US20060003382A1, “Compositions and methods for analyte detection” (priority 2004, published 2006).
# How the values were obtained:
# [1] = biological target: T1, egg white avidin (Gallus gallus, UniProt P02701); test: Cyclic / square wave voltammetry of the complexes before and after addition of avidin; format: binding; conditions: for current signal after addition of biotin to the avidin-bound complex (displacement): 25 equiv (25-fold excess) of biotin; for current signal of the redox couple upon addition of avidin: CV, glassy carbon electrode
# T1 construct: Egg white avidin (Molecular Probes); purchased Molecular Probes; host or cells: egg white
# Method: All operations involving Ru were carried out under argon according to standard Schlenk techniques. [(H2O)Ru(NH3)5]^2+ was either generated and isolated as the PF6^− salt according to the literature procedure and then used or the or Cl^− salt was used directly (See, e.g., Callahan et al., Inorg. Chem. 1975, 14, 1443-1453). Electrochemical experiments were carried out using a CH Instruments 660A workstation, a glassy carbon working electrode, a Ag/AgCl reference electrode and a platinum wire counter electrode.
# A solution of [(4-BMP)Ru(NH3)5](PF6)2 in pH 9.3 phosphate buffer was prepared and the cyclic voltammogram obtained.
# A solution of 1.0 mg [(4-DMP)Ru(NH3)5](PF6)2 in 4.2 mL 0.5M NaCl in H2O was prepared and the cyclic voltammogram obtained. […] To this was added 26 mg avidin, the CV obtained, and then 0.25 mL of a solution of methyl viologen (10 mg/5 mL; 7.77×10^−3M) was added and the CV remeasured.
# A 19 mg portion of avidin was added, the CV and square wave voltammograms were recorded.
# A 4.8×10^−5 M solution (0.75 mg) of [(4-DPEP)Ru(NH3)5](PF6)2 in pH 7.18 phosphate buffer was prepared and the cyclic voltammogram obtained.
# The electrochemical experiments were performed in phosphate buffer at pH 9.3, 8.1, and 7.3, in 0.5M NaCl solution, and in pH 7.3 HEPES buffer.
# [2] = biological target: T2, avidin (Gallus gallus, UniProt P02701); conditions: non-covalent protein-small molecule interaction; cited from earlier work
# [3] = biological target: T2, avidin; test: Oxidation by [Ru(NH3)6]^3+, decrease of UV-visible absorption at 410 nm over time, free vs avidin-bound; conditions: oxidant [Ru(NH3)6]^3+
# Method: In the case of [(4-DPEP)Ru(NH3)5]^2+ the oxidant [Ru(NH3)6]^3+ was added and the decrease of the UV-visible absorption at 410 nm was monitored over time.
# T1 sequence (P02701 25-152): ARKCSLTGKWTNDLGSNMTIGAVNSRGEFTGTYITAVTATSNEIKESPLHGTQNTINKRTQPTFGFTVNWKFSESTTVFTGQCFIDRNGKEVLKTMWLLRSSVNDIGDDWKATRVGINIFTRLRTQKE
# T2 sequence (P02701 25-152): as above
current signal after addition of biotin to the avidin-bound complex (displacement) [1],current signal after addition of biotin to the avidin-bound complex (displacement) ([1]; listed as [(4-DMP)Ru(NH3)5](PF6)2),current signal of the redox couple upon addition of avidin [1],"effect of added electrochemical mediators on the current signal of the Ru couple ([1]; avidin present, mediators 4,4′-bipyridine and methyl viologen)","rate of oxidation, avidin-bound versus free complex [3]",current signal of the redox couple upon addition of avidin ([1]; listed as [(4-DPEP)Ru(NH3)5](PF6)2),Molecule,kd of binding to avidin [2]
increased nearly to the original level,the signal was regenerated,decreased,no effect on the current signal,–,–,[(4-DMP)RU(NH3)5][PF6]2 [[(4-DMP)Ru(NH3)5]^2+],–
–,–,–,–,–,–,C[C@@H]1NC(=O)N[C@@H]1CCCCCC(=O)O [desthiobiotin],only slightly lower than that of biotin-avidin
–,–,decreased the signal,–,qualitatively slower,disappeared upon addition of avidin,[(4-DPEP)Ru(NH3)5][PF6]2 [[(4-DPEP)Ru(NH3)5]^2+],–
